Here are results for nine compounds from patent US8304443B2, “Indazole derivatives” (Asahi Kasei Pharma Corporation, priority 2008, dated 2012).

Data set [1] has as its target T1, human α1A adrenergic receptor (Homo sapiens, UniProt P35348).
T1 construct: expressed in transfected cells; host or cells: HEK293 cells, pcDNA3.1(−), geneticin-selected
T1 sequence (P35348 1-466): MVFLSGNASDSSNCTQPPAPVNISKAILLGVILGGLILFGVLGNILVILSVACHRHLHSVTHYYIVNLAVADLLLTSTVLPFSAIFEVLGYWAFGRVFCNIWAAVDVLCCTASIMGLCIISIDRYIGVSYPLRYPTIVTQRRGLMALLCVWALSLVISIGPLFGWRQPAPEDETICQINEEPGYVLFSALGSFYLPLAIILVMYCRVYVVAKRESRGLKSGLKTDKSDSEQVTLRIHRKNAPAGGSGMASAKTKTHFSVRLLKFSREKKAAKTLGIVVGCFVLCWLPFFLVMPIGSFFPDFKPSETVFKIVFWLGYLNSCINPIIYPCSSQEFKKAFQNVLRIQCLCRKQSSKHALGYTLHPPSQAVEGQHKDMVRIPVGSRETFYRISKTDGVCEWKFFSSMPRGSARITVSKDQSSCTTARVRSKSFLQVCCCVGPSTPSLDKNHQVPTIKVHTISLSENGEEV
The experiment in a line: Test example 4: human α1A adrenergic receptor agonist activity (Ca flux, Fura-2). Format: cell-based. The note with it: Test example 4, maximum response to norephinephrine taken as 100%; for Emax: read-out: α1A receptor I.A. On the procedure:
Human α1A adrenergic receptor agonist activity is determined by using HEK293 cells transfected with pcDNA3.1(−) (Invitrogen) to which human α1A gene has been inserted. These cells are cultured in a DMEM medium containing 10% fetal bovine serum, 400 μg/mL geneticin (Gibco BRL), 100 U/ml penicillin and 100 μg/ml streptomycin. […] After carrying out the loading for 30 minutes in a CO2 incubator, excess Fura-2AM is removed by washing the cells twice with the assay buffer. The cells obtained after the centrifuge is prepared to 5×10^6 cells/ml by using the assay buffer, and aliquoted into a 96-well UV plate (manufactured by Corning Inc.) to give a cell plate (80 μl/well). […] After the measurement for about 30 seconds, 20 μl of the test sample from the sample plate is added to the cell plate and the measurement is continued for another 270 seconds. Ca flux caused by the test compound is obtained from the peak height difference between the maximum value of fluorescence intensity ratio at 340 nm and 380 nm after the addition of the test compound and the fluorescence intensity ratio before the addition of the test compound. Maximum response to norephinephrine as a positive control is taken as 100%, and the maximum response ratio of each test compound is obtained as Intrinsic Activity [I.A. (%)].

Data set [2] addresses T2, human β3 adrenergic receptor (Homo sapiens, UniProt P13945).
T2 construct: used as a probe to obtain the full length human β3 gene from a human genomic library (Clonetech); expressed in transfected cells; host or cells: CHO (Chinese hamster ovary) cells, pcDNA3, geneticin-selected
Nature of the data set: Test example 1-B: human β3 adrenergic receptor agonist activity (cAMP-Screen, 96-well). Format: cell-based. The note with it: for Emax: 0.5 h, read-out: β3 receptor I.A.; for EC50: CHO cells with human β3 gene, cAMP. How it is done:
Human β3 adrenergic receptor agonist activity is determined using CHO (Chinese hamster ovary) cells transfected with pcDNA3 (Invitrogen) to which human β3 gene has been inserted. […] This human β3 cDNA fragment is used as a probe to obtain the full length human β3 gene from a human genomic library (Clonetech). The above cells are cultured in a Ham's F-12 medium containing 10% fetal bovine serum and 400 μg/mL geneticin (Invitrogen). After seeding these cells into a 96-well plate (2×10^4 cells/well) and culturing them for about 20 hours, they are allowed to stand in a serum-free Ham's F-12 medium (80 μL) for 15 minutes. The test compound is first dissolved in DMSO, serially diluted with Ham's F-12 comprising 100 mmol/L HEPES and 1 mmol/L isobutylmethylxanthine, and then 20 μL of the solution is added to the cells. After the cells are cultured for 30 minutes, the medium is removed, followed by addition of assay/lysis buffer (0.1 ml) included in cAMP-Screen Kit (manufactured by Applied Biosystems). The cells are incubated for 30 minutes at 37° C. The resulting cell lysate is determined to cAMP quantitation by using cAMP-Screen kit described above.

The target of data set [3] is T3, human β2 adrenergic receptor (Homo sapiens, UniProt P07550).
T3 construct: expressed in transfected cells; host or cells: CHO (Chinese hamster ovary) cells, pcDNA3
T3 sequence (P07550 whole entry): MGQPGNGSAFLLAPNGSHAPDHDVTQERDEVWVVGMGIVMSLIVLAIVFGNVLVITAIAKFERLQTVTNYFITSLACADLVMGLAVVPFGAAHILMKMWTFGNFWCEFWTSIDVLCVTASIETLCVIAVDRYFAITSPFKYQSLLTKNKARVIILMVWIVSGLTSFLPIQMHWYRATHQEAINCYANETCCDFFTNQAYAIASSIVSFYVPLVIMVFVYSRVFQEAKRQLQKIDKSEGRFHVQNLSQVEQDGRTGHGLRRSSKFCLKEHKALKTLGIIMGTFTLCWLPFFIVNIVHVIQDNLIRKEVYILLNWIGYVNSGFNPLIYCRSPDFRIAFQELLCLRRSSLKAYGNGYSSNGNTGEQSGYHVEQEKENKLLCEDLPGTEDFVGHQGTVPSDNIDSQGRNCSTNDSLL
The experiment in a line: Test example 3-B: human β2 adrenergic receptor agonist activity. Format: cell-based. Particulars: read-out: β2 receptor I.A.

The target of data set [4] is T4, human β1 adrenergic receptor (Homo sapiens, UniProt P08588).
T4 construct: expressed in transfected cells; host or cells: CHO (Chinese hamster ovary) cells, pcDNA3
T4 sequence (P08588 whole entry): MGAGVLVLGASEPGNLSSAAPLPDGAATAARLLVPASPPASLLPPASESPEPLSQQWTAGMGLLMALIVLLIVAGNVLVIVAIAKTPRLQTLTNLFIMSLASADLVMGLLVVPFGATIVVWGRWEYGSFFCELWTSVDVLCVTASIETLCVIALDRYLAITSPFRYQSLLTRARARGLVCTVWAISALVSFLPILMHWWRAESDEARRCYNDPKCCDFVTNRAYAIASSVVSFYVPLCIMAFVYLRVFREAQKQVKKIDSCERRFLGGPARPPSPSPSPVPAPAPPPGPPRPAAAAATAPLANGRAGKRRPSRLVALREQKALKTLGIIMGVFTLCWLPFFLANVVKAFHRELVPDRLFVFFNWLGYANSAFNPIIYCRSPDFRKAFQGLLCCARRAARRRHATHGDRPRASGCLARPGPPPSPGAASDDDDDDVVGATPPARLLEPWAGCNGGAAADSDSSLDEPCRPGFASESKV
The experiment in a line: Test example 2-B: human β1 adrenergic receptor agonist activity. The data set is classed as cell-based. The note with it: 0.5 h; read-out: β1 receptor I.A.

Data set [5] concerns rat under pentobarbital anesthesia. The experiment in a line: Test example 9: effect on blood pressure and heart rate of a rat under pentobarbital anesthesia. Format: in vivo. Particulars: male SD rat, 3 mg/kg intravenous bolus; greatest change of mean blood pressure relative to before administration; mean ± standard deviation. On the procedure: After measuring blood pressure and heart rate of a rat under pentobarbital anesthesia, an effect of intravenous bolus administration of a test compound on blood pressure and heart rate can be determined. To a male SD rat (Japan SLC Inc.), sodium pentobarbital (Tokyo Chemical Industry Co., Ltd.) is intraperitoneally administered for induction of anesthesia (50 mg/kg). As maintenance anesthetics, sodium pentobarbital is subcutaneously administered (25 mg/kg). Left femoral vein is exposed and stripped, and then a polyethylene tube SP10 (connected to a three-way stopcock via ¼ vein needle) which has been filled with physiological saline is inserted and left in the vein.
Left medial femoral region is cut to expose and strip the femoral artery, and then a polyethylene tube (SP31, connected to a three-way stopcock via 22 G injection needle by TERUMO Corporation) which has been filled with heparin physiological saline is inserted and connected to a pressure transducer. Blood pressure is measured from the pressure transducer by using a modified pressure amplifier (AP-641 G, Nihon Kohden Corporation). Heart rate is measured by using the Heart rate Counter (AT-601 g, Nihon Kohden Corporation) while having the pulse wave of the blood pressure as a trigger. The blood pressure, mean blood pressure and heart rate are transmitted to the data recorder for recordation. In addition, the mean blood pressure is recorded using a modified pressure amplifier (AP-641 G) according to the equation of {diastolic blood pressure+(systolic blood pressure−diastolic blood pressure)/3}.
Blood pressure and heart rate measurement is started, and after confirming that each value remains almost constant, the test compound (3 mg/kg) is administered to the left femoral vein for 30 seconds. Specifically, the test compound with 3 mg/mL concentration is bolus administered at the administration dose of 1 mL/kg. Relative value (%) at each time point compared to the mean blood pressure and the heart rate before the administration is obtained for each individual. […]

The subject of data set [6] is urinary bladder smooth muscle isolated from common marmoset. Nature of the data set: Test example 7: relaxant activity on urinary bladder smooth muscle isolated from common marmoset. The note with it: strips contracted by 40 mmol/L KCl, papaverine 10^−4 mol/L relaxation = 100%.
Description: Specifically, a common marmoset (CLEA Japan, Inc.) is bled to exsanguinated death, and then the urinary bladder is taken out of the marmoset via laparotomy. […] A resting tension of 1 g is applied to the strips, which is then equilibrated for more than 30 minutes. […] The final concentration is 10^−9, 10^−8, 10^−7, 10^−8, 10^−5 and 10^−4 mol/L. Upon the completion of the relaxation response to the test compound at the highest concentration, papaverine with final concentration of 10^−4 mol/L is added and the maximum relaxation response is obtained for each strip. This relaxation response is taken as 100%, and the relaxation ratio (%) is obtained for the test compound at the concentrations of 10^−5 and 10^−4 mol/L.
The target of data set [7] is T2, human β3 adrenergic receptor. Nature of the data set: Test example 1-A: human β3 adrenergic receptor agonist activity (cAMP EIA, 24-well). Format: cell-based. The note with it: Table 3, maximum response to isoproterenol taken as 100%. On the procedure: Human β3 adrenergic receptor agonist activity is determined using CHO (Chinese hamster ovary) cells transfected with pcDNA3 (Invitrogen) to which human β3 gene has been inserted. […] This human β3 cDNA fragment is used as a probe to obtain the full length human β3 gene from a human genomic library (Clonetech). The above cells are cultured in a Ham's F-12 medium containing 10% fetal bovine serum and 400 μg/mL geneticin (Invitrogen).

Read-outs that look alike come from different tables or passages of the source.

T2 sequence (P13945 whole entry): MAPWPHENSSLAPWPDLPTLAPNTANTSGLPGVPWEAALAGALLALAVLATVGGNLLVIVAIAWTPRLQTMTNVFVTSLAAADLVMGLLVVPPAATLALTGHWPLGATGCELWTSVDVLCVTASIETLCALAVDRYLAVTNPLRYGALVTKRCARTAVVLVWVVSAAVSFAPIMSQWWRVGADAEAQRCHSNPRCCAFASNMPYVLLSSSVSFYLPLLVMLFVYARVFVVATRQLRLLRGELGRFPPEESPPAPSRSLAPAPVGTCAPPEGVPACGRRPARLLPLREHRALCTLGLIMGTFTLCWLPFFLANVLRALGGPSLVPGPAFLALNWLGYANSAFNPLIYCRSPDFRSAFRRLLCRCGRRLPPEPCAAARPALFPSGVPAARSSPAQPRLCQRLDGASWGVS

What is called EC50 is the concentration giving half of the maximal effect. For the compound `COC(C)c1n[nH]c2cc(OCCNC[C@H](O)c3cccc(NS(C)(=O)=O)c3)ccc12` (stereo partly drawn) [Example 3, N-(3-((R)-1-Hydroxy-2-(2-(3-(1-methoxyethyl)-indazol-6-yloxy)ethylamino)ethyl)phenyl)methanesulfonamide], the Emax turned out to be 15% in data set [1] (Table 4), 60% in data set [2], 5% in data set [3] and 4% in data set [4]. In data set [2] (Table 4, Test example 1-B), this compound showed an EC50 of 0.045 µM. In data set [5], the “increase in MBP (%)” value is recorded as 2.3 ± 0.9%.

`CS(=O)(=O)Nc1cc([C@@H](O)CNCCOc2ccc3c(C4CC4)n[nH]c3c2)ccc1F` [Example 4, (R)—N-(5-(2-(2-(3-Cyclopropylindazol-6-yloxy)ethylamino)-1-hydroxyethyl)-2-fluorophenyl)methanesulfonamide]: the Emax in data set [1] (Table 4) was found to be 0%; in data set [2], 52%; in data set [3] it was 8%; in data set [4], 9%. In addition, in data set [2] (Table 4, Test example 1-B), the response was half-maximal at 0.024 µM (EC50).

As for `CS(=O)(=O)Nc1cc([C@@H](O)CNCCOc2ccc3c(C4CC4)n[nH]c3c2)ccc1Cl` [Example 5, (R)—N-(2-Chloro-5-(2-(2-(3-cyclopropylindazol-6-yloxy)ethylamino)-1-hydroxyethyl)phenyl)methanesulfonamide], the Emax was 0% in data set [1] (Table 4), 59% in data set [2], 9% in data set [3] and 23% in data set [4]. In addition, the EC50 in data set [2] (Table 4, Test example 1-B) amounted to 0.019 µM.

`CS(=O)(=O)Nc1cc([C@@H](O)CNCCOc2ccc3c(C4CCC4)n[nH]c3c2)ccc1F` [Example 6, (R)—N-(5-(2-(2-(3-Cyclobutylindazol-6-yloxy)ethylamino)-1-hydroxyethyl)-2-fluorophenyl)methanesulfonamide]: the Emax in data set [1] (Table 4) stood at 0%; in data set [2], 41%. Further, the EC50 in data set [2] (Table 4, Test example 1-B) came to 0.054 µM.

`CS(=O)(=O)Nc1cc([C@@H](O)CNCCOc2ccc3c(OC(F)F)n[nH]c3c2)ccc1F` [Example 7, (R)—N-(5-(2-(2-(3-(Difluoromethoxy)-indazol-6-yloxy)ethylamino)-1-hydroxyethyl)-2-fluorophenyl)methanesulfonamide]: the Emax in data set [1] (Table 4) worked out at 5%; in data set [2] it was 51%. The compound also showed an EC50 in data set [2] (Table 4, Test example 1-B) of 0.584 µM.

Consider `CS(=O)(=O)Nc1cc([C@@H](O)CNCCOc2ccc3c(C4CCC4)n[nH]c3c2)ccc1Cl` [Example 8, (R)—N-(2-Chloro-5-(2-(2-(3-cyclobutylindazol-6-yloxy)ethylamino)-1-hydroxyethyl)phenyl)methanesulfonamide], for which the Emax in data set [1] (Table 4) worked out at 0%; in data set [2], 70%; in data set [3], 10%; in data set [4], 34%. In data set [2] (Table 4, Test example 1-B), this compound showed an EC50 of 0.029 µM.

Consider `CS(=O)(=O)Nc1cc([C@@H](O)CNCCOc2ccc3c(OC(F)F)n[nH]c3c2)ccc1Cl` [Example 9, (R)—N-(2-Chloro-5-(2-(2-(3-(difluoromethoxy)-indazol-6-yloxy)ethylamino)-1-hydroxyethyl)phenyl)methanesulfonamide], for which the Emax came to 5% in data set [1] (Table 4), 51% in data set [2], 1% in data set [3] and 30% in data set [4]. Also, the EC50 in data set [2] (Table 4, Test example 1-B) worked out at 0.056 µM.

Consider `NC[C@H](O)c1ccc(O)c(O)c1` [Norepinephrine, reference compound], for which the Emax in data set [1] (Table 3) stood at 100%. The “α1A receptor I.A.” value in data set [1] (Table 4) was 100%.

Take `CC(C)NCC(O)c1ccc(O)c(O)c1` (centres unmarked) [isoproterenol, reference compound]: in data set [6] (10^−4 M), the “relaxant activity (%) 10^−4 M” value came to 66.2%. For the same compound, in data set [6] (10^−5 M), the “relaxant activity (%) 10^−5 M” value came out at 60.9%. Moreover, the “β3 receptor I.A.” value in data set [7] is 100%; in data set [2] (Table 4, Test example 1-B, maximum response to isoproterenol taken as 100%), 100%.
